Assay results published in US8309554B2 (priority 2008, dated 2012).
Like-named read-outs stand apart in the source and are kept apart here.

What was measured:
[1] = tested on: HT 1080 sarcoma xenograft; settings: mouse, in vivo
[2] = tested on: HT29; test: cells; type: cell-based; settings: for IC50: Homo sapiens, HT-29, 2 h
[3] = tested on: H460; test: cells; type: cell-based; settings: for IC50: Homo sapiens, NCI-H460, 2 h
[4] = tested on: H460 non small cell lung xenograft; settings: mouse, in vivo
[5] = in vivo; settings: mouse, ip

SMILES | tumor growth delay to 500 mm^3 ([1]; ip, 50 mg/kg) [days] | HT29 HCR: Air/N2 [2] | IC50 ([2]; read-out: 2 hr Air HT29 IC50) [µM] | IC50 ([2]; read-out: 2 hr N2 HT29 IC50) [µM] | H460 HCR: Air/N2 [3] | IC50 ([3]; read-out: 2 hr Air H460 IC50) [µM] | IC50 ([3]; read-out: 2 hr N2 H460 IC50) [µM] | tumor growth delay to 500 mm^3 [4] [days] | MTD [5] [mg/kg] | tumor growth delay to 500 mm^3 [1] [days]
O=[N+]([O-])c1sccc1C(Cc1ccc(OCCO)nc1)S(=O)(=O)Oc1ccc(N(CCCl)CCCl)cc1 (stereo not shown) [TH-1315, 3-(4-(N,N-bis-(2-Chloroethyl)amino)phenoxysulfonyl-(2-(2-hydroxyethoxy)pyridin-5-yl-methyl))methyl-2-nitrothiophene] | 6 | >23 | > 300 | 13 | 142 | 99.5 | 0.7 | 19 | 50 | –
COc1cccc2c1C(=O)c1c(O)c3c(c(O)c1C2=O)C[C@@](O)(C(=O)CO)C[C@@H]3O[C@H]1C[C@H](N)[C@H](O)[C@H](C)O1 [doxorubicin, reference compound] | – | – | – | – | – | – | – | – | – | 10
